Assay: cn = amount concentration of the nth substance listed, in mol/dm3
Settings: 101.3 kPa, Liquid, Open capillary

[Cl-].[Cl-].[Cl-].[Cr+3] [chromium chloride] + O
binary diffusion coefficient [m2/s]
Settings	c1 = 0.005	c1 = 0.008	c1 = 0.01	c1 = 0.02	c1 = 0.03	c1 = 0.05
298.15 K	1.33e-09	1.2e-09	1.17e-09	1.1e-09	1.06e-09	1.03e-09
303.15 K	1.85e-09	1.33e-09	1.31e-09	1.26e-09	1.2e-09	1.17e-09
